Measured values reported in paper PMC4854315, “Discovery of a novel allosteric inhibitor-binding site in ERK5: comparison with the canonical kinase hinge ATP-binding site” (Acta Crystallographica. Section D, Structural Biology, 2016).

Assays:
Assay in all cases: Z'-LYTE kinase panel
Assay type in all cases: biochemical
[1] = biological target: T1, CHEK2 (CHK2) (Homo sapiens, UniProt O96017)
T1 construct: purchased ThermoFisher (SelectScreen, Z'-LYTE)
Procedure: (§1) Compounds 2, 3 and 5 were tested for activity against the 225 kinases in the ThermoFisher standard kinase panel. The standard Z′-LYTE assay protocol (ThermoFisher) was used to measure the percentage inhibition at 10 µM compound concentration (details are provided in the supporting information).

[2] = biological target: T2, CSNK1A1 (CK1 alpha 1) (Homo sapiens, UniProt P48729)
T2 construct: purchased ThermoFisher (SelectScreen, Z'-LYTE)
Procedure: as §1

[3] = biological target: T3, CSNK1D (CK1 delta) (Homo sapiens, UniProt P48730)
T3 construct: purchased ThermoFisher (SelectScreen, Z'-LYTE)
Procedure: as §1

[4] = biological target: T4, CSNK1G1 (CK1 gamma 1) (Homo sapiens, UniProt Q9HCP0)
T4 construct: purchased ThermoFisher (SelectScreen, Z'-LYTE)
Procedure: as §1

[5] = biological target: T5, CSNK1G2 (CK1 gamma 2) (Homo sapiens, UniProt P78368)
T5 construct: purchased ThermoFisher (SelectScreen, Z'-LYTE)
Procedure: as §1

[6] = biological target: T6, EEF2K (Homo sapiens, UniProt O00418)
T6 construct: purchased ThermoFisher (SelectScreen, Z'-LYTE)
Procedure: as §1

[7] = biological target: T7, EPHB3 (Homo sapiens, UniProt P54753)
T7 construct: purchased ThermoFisher (SelectScreen, Z'-LYTE)
T7 sequence (P54753 34-998): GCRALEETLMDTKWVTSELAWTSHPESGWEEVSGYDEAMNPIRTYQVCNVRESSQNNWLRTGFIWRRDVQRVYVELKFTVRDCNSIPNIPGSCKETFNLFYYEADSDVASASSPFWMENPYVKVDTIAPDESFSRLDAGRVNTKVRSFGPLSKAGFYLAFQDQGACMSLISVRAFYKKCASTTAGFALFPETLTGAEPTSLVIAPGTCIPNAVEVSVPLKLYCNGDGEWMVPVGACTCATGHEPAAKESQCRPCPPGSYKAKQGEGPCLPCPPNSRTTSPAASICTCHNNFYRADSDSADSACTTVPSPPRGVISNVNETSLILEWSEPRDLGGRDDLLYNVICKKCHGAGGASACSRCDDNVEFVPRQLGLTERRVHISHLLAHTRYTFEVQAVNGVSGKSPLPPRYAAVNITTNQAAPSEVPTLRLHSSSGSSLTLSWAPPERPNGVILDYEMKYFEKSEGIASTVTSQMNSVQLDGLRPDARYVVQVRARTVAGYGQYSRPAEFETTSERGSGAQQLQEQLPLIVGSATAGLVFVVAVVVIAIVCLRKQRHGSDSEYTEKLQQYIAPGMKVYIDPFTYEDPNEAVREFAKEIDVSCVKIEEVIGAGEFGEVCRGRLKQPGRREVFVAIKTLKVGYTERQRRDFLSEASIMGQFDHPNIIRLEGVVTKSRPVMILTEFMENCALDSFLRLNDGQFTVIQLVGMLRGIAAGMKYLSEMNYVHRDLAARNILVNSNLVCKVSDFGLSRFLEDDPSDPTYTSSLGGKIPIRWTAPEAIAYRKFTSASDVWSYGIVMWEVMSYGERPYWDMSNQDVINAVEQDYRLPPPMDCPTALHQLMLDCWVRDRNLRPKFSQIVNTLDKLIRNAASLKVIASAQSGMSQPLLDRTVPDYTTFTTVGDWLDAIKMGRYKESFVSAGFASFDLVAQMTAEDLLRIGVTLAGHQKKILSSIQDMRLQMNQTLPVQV
Procedure: as §1

[8] = biological target: T8, ITK (Homo sapiens, UniProt Q08881)
T8 construct: purchased ThermoFisher (SelectScreen, Z'-LYTE)
T8 sequence (Q08881 1-620): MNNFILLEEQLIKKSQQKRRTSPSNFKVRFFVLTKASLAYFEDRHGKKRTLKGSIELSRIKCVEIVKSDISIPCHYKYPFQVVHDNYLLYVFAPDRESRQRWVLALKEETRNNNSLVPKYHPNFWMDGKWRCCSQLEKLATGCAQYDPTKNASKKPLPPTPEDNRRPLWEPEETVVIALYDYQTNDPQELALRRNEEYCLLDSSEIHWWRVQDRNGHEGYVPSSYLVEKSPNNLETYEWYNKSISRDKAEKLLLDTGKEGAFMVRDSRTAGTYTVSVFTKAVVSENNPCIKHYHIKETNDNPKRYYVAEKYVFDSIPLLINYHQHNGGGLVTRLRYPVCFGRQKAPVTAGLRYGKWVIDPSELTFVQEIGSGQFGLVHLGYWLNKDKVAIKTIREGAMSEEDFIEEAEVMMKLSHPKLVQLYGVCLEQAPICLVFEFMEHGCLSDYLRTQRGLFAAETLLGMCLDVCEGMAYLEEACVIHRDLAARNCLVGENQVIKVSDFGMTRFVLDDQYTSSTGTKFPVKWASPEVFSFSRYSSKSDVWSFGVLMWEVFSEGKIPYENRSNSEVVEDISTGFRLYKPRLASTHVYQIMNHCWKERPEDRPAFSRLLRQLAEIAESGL
Procedure: as §1

[9] = biological target: T9, MAP2K1 (MEK1) (Homo sapiens, UniProt Q02750); details: 10 µM compound; ATP 100
T9 construct: purchased ThermoFisher (SelectScreen, Z'-LYTE)
Procedure: as §1

[10] = biological target: T10, PIM1 (Homo sapiens, UniProt P11309)
T10 construct: purchased ThermoFisher (SelectScreen, Z'-LYTE)
Procedure: as §1

[11] = biological target: T11, PRKG1 (Homo sapiens, UniProt Q13976)
T11 construct: purchased ThermoFisher (SelectScreen, Z'-LYTE)
T11 sequence (Q13976 1-671): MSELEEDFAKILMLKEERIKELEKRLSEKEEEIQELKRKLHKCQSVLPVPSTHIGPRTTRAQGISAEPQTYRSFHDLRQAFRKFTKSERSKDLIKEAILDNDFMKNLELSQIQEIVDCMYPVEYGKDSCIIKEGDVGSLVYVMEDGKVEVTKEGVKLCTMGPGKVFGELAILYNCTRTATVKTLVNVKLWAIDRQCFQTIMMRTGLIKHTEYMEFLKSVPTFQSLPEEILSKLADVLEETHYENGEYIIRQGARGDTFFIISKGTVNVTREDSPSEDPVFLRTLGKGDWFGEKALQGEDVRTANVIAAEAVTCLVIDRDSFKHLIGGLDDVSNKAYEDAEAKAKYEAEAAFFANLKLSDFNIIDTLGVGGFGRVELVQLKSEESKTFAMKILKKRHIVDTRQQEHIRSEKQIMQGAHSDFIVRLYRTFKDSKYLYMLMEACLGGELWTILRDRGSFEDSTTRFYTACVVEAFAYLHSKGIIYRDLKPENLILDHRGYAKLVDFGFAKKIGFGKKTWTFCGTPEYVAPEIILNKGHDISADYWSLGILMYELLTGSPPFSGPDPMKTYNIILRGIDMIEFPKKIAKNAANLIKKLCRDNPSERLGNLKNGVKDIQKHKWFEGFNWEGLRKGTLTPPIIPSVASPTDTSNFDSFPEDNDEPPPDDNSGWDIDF
Procedure: as §1

[12] = biological target: T12, PTK2B (FAK2) (Homo sapiens, UniProt Q14289)
T12 construct: purchased ThermoFisher (SelectScreen, Z'-LYTE)
Procedure: as §1

T12 sequence (Q14289 whole entry): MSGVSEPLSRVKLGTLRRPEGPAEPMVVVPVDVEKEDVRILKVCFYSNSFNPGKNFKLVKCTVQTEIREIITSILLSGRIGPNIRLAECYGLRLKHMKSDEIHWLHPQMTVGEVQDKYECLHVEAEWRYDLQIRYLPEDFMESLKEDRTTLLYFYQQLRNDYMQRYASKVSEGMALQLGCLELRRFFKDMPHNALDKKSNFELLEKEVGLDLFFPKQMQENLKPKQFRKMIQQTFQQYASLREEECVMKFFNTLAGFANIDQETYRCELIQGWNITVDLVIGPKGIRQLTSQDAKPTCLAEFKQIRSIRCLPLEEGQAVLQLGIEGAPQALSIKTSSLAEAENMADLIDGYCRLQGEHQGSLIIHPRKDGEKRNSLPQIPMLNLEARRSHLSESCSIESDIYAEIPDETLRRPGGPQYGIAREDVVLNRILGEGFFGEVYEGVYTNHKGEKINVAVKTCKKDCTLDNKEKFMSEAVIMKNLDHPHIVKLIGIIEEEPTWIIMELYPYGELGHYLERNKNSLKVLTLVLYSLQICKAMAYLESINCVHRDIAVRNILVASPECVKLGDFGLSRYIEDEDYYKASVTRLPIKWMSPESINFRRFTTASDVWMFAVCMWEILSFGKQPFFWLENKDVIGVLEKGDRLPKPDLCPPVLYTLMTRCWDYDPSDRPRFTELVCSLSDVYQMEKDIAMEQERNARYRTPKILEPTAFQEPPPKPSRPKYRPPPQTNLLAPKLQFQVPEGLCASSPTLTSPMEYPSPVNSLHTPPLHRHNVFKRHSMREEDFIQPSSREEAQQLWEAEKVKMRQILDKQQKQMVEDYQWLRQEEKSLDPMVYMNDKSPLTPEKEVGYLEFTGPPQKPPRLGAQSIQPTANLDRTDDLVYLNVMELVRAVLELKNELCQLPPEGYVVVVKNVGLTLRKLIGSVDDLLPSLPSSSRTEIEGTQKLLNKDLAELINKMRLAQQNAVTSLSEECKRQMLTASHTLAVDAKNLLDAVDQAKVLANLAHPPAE
T2 sequence (P48729 whole entry): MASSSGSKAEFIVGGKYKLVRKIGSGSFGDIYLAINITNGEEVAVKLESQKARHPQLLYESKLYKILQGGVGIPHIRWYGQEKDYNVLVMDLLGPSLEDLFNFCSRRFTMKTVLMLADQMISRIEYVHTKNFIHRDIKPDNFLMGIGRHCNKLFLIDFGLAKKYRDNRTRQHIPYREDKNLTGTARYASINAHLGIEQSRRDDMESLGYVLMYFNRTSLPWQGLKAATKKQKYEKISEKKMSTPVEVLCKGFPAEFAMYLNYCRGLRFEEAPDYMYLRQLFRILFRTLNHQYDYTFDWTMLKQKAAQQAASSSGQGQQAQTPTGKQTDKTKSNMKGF
T10 sequence (P11309 whole entry): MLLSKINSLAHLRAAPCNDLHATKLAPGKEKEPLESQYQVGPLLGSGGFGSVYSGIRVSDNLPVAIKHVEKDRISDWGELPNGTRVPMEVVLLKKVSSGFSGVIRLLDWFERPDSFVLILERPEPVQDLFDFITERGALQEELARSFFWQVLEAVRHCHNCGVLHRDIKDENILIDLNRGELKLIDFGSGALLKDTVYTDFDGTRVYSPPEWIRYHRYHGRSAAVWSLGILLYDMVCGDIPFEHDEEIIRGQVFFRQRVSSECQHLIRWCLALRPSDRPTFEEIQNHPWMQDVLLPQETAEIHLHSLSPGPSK
T4 sequence (Q9HCP0 whole entry): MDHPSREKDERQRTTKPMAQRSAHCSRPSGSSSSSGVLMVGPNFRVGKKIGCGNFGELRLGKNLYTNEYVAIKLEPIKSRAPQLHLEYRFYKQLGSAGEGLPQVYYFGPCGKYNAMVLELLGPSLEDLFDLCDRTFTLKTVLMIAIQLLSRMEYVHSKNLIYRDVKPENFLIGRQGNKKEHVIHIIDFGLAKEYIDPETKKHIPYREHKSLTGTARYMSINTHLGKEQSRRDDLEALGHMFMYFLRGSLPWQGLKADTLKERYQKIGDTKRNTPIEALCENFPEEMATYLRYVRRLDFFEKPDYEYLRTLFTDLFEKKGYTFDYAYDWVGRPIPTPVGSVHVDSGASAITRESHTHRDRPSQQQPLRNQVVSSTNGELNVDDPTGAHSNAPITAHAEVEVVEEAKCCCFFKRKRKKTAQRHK
T1 sequence (O96017 whole entry): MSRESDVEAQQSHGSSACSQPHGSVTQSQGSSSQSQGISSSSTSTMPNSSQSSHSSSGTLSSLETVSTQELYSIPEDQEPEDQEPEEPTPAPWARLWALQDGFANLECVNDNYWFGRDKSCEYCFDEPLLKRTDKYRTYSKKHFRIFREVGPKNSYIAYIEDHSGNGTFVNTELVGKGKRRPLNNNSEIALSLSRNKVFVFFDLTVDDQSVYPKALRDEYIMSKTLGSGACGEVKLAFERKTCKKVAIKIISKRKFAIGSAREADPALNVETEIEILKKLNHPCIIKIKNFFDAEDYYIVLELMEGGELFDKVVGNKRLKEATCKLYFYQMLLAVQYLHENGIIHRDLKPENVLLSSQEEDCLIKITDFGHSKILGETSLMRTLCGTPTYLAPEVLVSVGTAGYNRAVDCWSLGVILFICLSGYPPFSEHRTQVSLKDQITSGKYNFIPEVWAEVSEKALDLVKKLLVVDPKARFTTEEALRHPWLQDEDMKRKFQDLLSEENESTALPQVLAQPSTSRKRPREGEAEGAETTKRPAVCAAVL
T3 sequence (P48730 whole entry): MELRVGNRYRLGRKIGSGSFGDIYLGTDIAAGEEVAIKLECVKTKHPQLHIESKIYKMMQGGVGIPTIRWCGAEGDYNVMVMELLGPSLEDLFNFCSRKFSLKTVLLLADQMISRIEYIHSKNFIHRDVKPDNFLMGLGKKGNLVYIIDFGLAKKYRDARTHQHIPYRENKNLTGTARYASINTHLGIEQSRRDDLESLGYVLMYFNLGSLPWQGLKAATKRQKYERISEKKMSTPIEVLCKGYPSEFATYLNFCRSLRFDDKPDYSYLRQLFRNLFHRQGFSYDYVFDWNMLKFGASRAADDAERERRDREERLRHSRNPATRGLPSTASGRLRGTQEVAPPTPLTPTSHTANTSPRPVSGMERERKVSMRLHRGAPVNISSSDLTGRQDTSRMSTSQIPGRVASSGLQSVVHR
T5 sequence (P78368 whole entry): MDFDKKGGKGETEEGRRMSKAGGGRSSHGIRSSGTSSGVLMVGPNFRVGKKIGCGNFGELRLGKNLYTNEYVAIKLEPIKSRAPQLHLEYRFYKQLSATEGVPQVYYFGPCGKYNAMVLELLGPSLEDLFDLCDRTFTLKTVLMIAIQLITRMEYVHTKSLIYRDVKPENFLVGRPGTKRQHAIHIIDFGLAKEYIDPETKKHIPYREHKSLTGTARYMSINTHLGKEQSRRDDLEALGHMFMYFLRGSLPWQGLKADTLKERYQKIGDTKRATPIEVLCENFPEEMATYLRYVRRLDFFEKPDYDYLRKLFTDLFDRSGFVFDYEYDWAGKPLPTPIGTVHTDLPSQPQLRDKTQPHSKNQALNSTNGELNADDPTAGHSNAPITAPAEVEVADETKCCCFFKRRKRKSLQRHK

Row | Molecule | inhibition at 10 µM [1] [%] | inhibition at 10 µM [2] [%] | inhibition at 10 µM [3] [%] | inhibition at 10 µM [4] [%] | inhibition at 10 µM [5] [%] | inhibition at 10 µM [6] [%] | inhibition at 10 µM [7] [%] | inhibition at 10 µM [8] [%] | inhibition at 10 µM [9] [%] | inhibition at 10 µM [10] [%] | inhibition at 10 µM [11] [%] | inhibition at 10 µM [12] [%] | also measured
1 | XMD8-92 [Compound 2, reference compound] |  |  |  |  |  |  |  |  |  |  |  |  | CHEK2 (CHK2) % Inhibition ([1]; 10 µM compound, ATP Km app): 26%; CSNK1A1 (CK1 alpha 1) % Inhibition ([2]; 10 µM compound, ATP Km app): 7%; CSNK1D (CK1 delta) % Inhibition ([3]; 10 µM compound, ATP Km app): 4.56%; CSNK1G1 (CK1 gamma 1) % Inhibition ([4]; 10 µM compound, ATP Km app): 24%; CSNK1G2 (CK1 gamma 2) % Inhibition ([5]; 10 µM compound, ATP Km app): 11%; EEF2K % Inhibition ([6]; 10 µM compound, ATP Km app): -6%; EPHB3 % Inhibition ([7]; 10 µM compound, ATP Km app): 22%; ITK % Inhibition ([8]; 10 µM compound, ATP Km app): 18%; MAP2K1 (MEK1) % Inhibition [9]: 17%; PIM1 % Inhibition ([10]; 10 µM compound, ATP Km app): 35%; PRKG1 % Inhibition ([11]; 10 µM compound, ATP Km app): 10%; PTK2B (FAK2) % Inhibition ([12]; 10 µM compound, ATP Km app): 20%
2 | Cc1ncc(-c2nc(Nc3ccc(C(=O)NCCN4CCCCC4)cc3)ncc2F)n1C(C)C [Compound 3] | 88 | 28 | 92 | 70 | 93 | 1.51 | 51 | 88 | 97 | 65 | 80 | 94 | 
3 | Cc1cc(Nc2nc(N)nn2C(=O)NC(C)C)ccc1Cl [Compound 5] | 4.23 | 4 | -2 | 8 | 10 | -5.55 | 0.2 | 10 | 8.53 | -1.79 | -4 | 23 | 
